The record followed here is patent US20080311589A1, “METHOD OF HIGH-THROUGHPUT SCREENING OF MOLECULES AND COMPOUNDS FOR THEIR EFFECTS ON BIOLOGICAL AND CHEMICAL PROCESSES” (priority 1999, published 2008).

This test relates to Mv1Lu mink lung epithelial cells. Description: 1536 well BrdU cytoblot. It counts as cell-based. Particulars: 1536-well plate, approximately 500 cells per well. As for the experimental part:
FIG. 3. BrdU incorporation can be efficiently detected with a cytoblot in 1536 well plates in 2 μL droplets. 500 Mv1Lu mink lung epithelial cells were seeded in each well of a white, opaque 1536 well plate (Corning/Costar, Corning, N.Y.). The cells were seeded with or without […] TGF-β in 2 μL of 1% mink medium and allowed to incubate at 37° C. with 5% CO2. After 24 hours, 0.5 μL of 50 μM BrdU in 1% mink medium was added to the indicated wells, for a final concentration of 10 μM BrdU. The plate were incubated at 37° C. with 5% CO2 for an additional 12 hours and then an anti-BrdU cytoblot protocol was performed (see protocols). Wells are magnified as indicated.
Thus, the application of the cytoblot assay to plates containing a higher density of wells was tested. Mink lung cells were seeded into opaque, white 1536-well plates with each well containing approximately 500 cells. Next, the ability of TGF-β to prevent BrdU incorporation was assayed. […] The following protocol provides experimental detail.
The reagents to be tested were prepared in 1536 well plates (Greiner America, Lake Mary, Fla.), with one or more test compounds per well. If the test compounds were attached on solid support (beads), then the beads were distributed into individual wells of 1536 well white plate in acetonitrile. […]

Regarding “TGF-β: anti-mitogen transforming growth factor β, multifunctional polypeptide signaling factor”, the BrdU incorporation entry was “effectively prevents BrdU incorporation”.
